Common to all, as to format: cell-based
The subject of assay [1] is Wnt responsive luciferase reporter (TCF4-Luc). As to the kind of experiment: TCF4-Luc luciferase reporter assay in UMR 106 cells. As to conditions: for TCF luciferase activity: 5×10^−7 M of indicated PTH ligands for 12 hours. Background: A reporter such as luciferase makes a cellular process visible.
In the next assay the test system is β-catenin. In words: β-catenin stabilization, Western blot of UMR 106 cell fractions. The note with it: UMR 106 cells; for inhibition of PTH-induced β-catenin stabilization: inhibitor 30 minutes before 10^−7 M PTH (1-84) for 1 hour, cytosolic fraction. In general terms: A western blot detects proteins with antibodies after separation by electrophoresis.
In a further assay the test system is LRP6/Axin binding. As to the kind of experiment: Axin-LRP6 binding immunoprecipitation assay. The note with it: for inhibition of PTH-induced binding of Axin to LRP6: pre-treatment 30 minutes, then PTH (1-84) for 1 hour; for Axin-LRP6 binding: HEK 293 cells cotransfected with LRP6, Axin and GSK3β, ligand for 1 hour.
In the next assay the test system is Axin. In words: Axin protein levels. As to conditions: cells overexpressing LRP6. The text has this:
Binding of Axin to phosphorylated LRP6 leads to rapid degradation. Then inhibition of Axin/LRP6 binding should […] degradation of Axin. Indeed, Axin degradation is reduced by both inhibitors (data not shown). […] PKA and PKC also were examined to determine whether they regulate PTH-induced PTH1R/LRP6 complex formation. […] Apparently, the receptor complex formation is independent of activation of PKA and PKC. Instead, it seems that activation of G protein-mediated PKA and PKC signaling is in parallel with the recruitment of LRP5/6 in PTH signaling. PKA and PKC activity is required for LRP5/6 phosphorylation and Axin/LRP6 binding.
Wnts induce binding of Axin to phosphorylated LRP6, and the membrane-bound Axin undergoes rapid protein dephosphorylation and degradation, which eventually leads to β-catenin stabilization Willert et al., 1999; Yamamoto et al., 1999).

The next assay deals with T1, PTH1R/LRP5/6 complex (Rattus norvegicus, UniProt P25961).
T1 construct: endogenous in cells; host or cells: UMR-106
T1 sequence (P25961 27-591): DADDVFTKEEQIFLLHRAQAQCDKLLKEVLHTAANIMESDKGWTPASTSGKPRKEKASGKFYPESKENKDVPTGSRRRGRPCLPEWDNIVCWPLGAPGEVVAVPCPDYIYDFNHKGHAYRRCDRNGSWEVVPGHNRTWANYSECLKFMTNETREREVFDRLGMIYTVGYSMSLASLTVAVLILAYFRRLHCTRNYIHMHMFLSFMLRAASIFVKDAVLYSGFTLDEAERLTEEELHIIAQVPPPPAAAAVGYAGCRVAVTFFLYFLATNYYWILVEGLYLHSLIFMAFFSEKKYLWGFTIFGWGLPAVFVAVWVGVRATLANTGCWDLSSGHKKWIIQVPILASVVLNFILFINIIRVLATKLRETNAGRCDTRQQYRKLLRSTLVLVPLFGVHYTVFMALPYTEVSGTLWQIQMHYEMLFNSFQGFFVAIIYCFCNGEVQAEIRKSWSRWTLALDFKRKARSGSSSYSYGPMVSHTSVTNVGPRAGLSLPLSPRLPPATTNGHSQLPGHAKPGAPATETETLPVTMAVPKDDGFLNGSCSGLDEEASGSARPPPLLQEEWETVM
As to the kind of experiment: Co-immunoprecipitation of endogenous PTH1R with LRP5/6 in UMR-106 cells. As to conditions: 5×10^−7 M PTH (1-84). How it is done: Endogenous LRP5 or LRP6 was coimmunoprecipitated with PTH1R in UMR 106 cells. UMR 106 cells were treated with 5×10^−7 M PTH (1-84) for indicated times. […] VSVG-tagged LRP6 was cotransfected into HEK 293 cells with HA-PTH1R, and the cells were treated with 5×10^−7 M PTH (1-84) for 1 hour. The LRP6-associated PTH ligand was determined by Western blotting of the anti-VSVG immunoprecipitates. […] VSVG-tagged LRP6, LRP6N, or LRP6C was cotransfected into HEK 293 cells with HA-PTH1R, and the cells were treated with or without 5×10^−7 M PTH (1-84) for 1 hour. The PTH1R-associated LRP6, LRP6N, or LRP6C was determined by Western blotting of the anti-HA immunoprecipitates, and the LRP6-, LRP6N- or LRP6C-associated PTH1R and PTH ligand was determined by Western blotting with an anti-VSVG antibody. […] The PTH1R-associated LRP6 was determined by Western blotting. […] The effect of LRP-6N on PTH-induced TCF4 activation was determined by luciferase assays.
To determine if PTH (1-84) induced the formation of a complex of endogenous PTH1R with LRP5/6, an immunoprecipitation assay in osteoblastic UMR-106 cells was used. […] The cell lysates isolated from transfected cells treated with or without PTH were subjected to immunoprecipitation with anti-PTH1R antibodies, and the immunocomplex was detected by Western blotting with a monoclonal antibody that recognizes both LRP5 and LRP6. […]

The test system of assay [2] is TGF-β-induced transcription activity. As to the kind of experiment: Smad binding response luciferase reporter (SBE-luc) in 293 cells. As to conditions: TGF-β 2 ng/ml, 50 nM. As to the method: A Smad binding response luciferase reporter (SBE-luc) was transfected into 293 cells. TGF-β (2 ng/ml) was added in combination with different doses of PTH (1-34) or cPTH (39-84). Twenty-four hours after transfection, the cells were lysed and the luciferase signal was detected. Luciferase values shown in the figures are representative of transfection experiments performed in triplicate in at least three independent experiments. The relative increased fold of the luciferase activity stimulated by TGF-β in each cell line was calculated.
A Smad binding response luciferase reporter (SBE-luc) was introduced into the multi-cloning site of pcDNA3 (Invitrogen), and the resulting vector was transfected into 293 cells using Lipofectamine Plus reagent (Invitrogen, Cat. No. 10964-013). TGF-β (2 ng/ml) was added in combination with different doses of PTH (1-34) (50 nM) or cPTH (39-84) (50 nM). […] Forty-two hours after transfection, the cells were lysed, and the luciferase signal was detected using the Dual Luciferase assay kit (Promega) according to the manufacturer's instructions.
Luciferase values shown in the figures are representative of transfection experiments performed in triplicate in at least three independent experiments. The relative increased fold of the luciferase activity stimulated by TGF-β in each cell line was calculated.

Entries after “also recorded” stand apart in the source; their conditions may differ.

Turning to `O=S(=O)(NCCNC/C=C/c1ccc(Br)cc1)c1cccc2cnccc12` [H89], in assay [1], the “inhibition of PTH-stimulated TCF4-luciferase reporter activity” value is on record as “inhibited activity from a TCF4-luciferase reporter”. Besides, in the assay with β-catenin, the “inhibition of PTH-induced β-catenin stabilization” value is reported as “inhibit PTH-induced β-catenin stabilization”. Further, in the assay on LRP6/Axin binding, the “inhibition of PTH-induced binding of Axin to LRP6” value was “inhibit the binding of Axin with LRP6”.

Take Calphostin C: the “inhibition of PTH-stimulated TCF4-luciferase reporter activity” value in assay [1] is given as “inhibited activity from a TCF4-luciferase reporter”. The “inhibition of PTH-induced β-catenin stabilization” value with β-catenin is reported as “less effective; also recorded: inhibit PTH-induced β-catenin stabilization”. The “inhibition of PTH-induced binding of Axin to LRP6” value with LRP6/Axin binding is on record as “much weaker; also recorded: inhibit the binding of Axin with LRP6”.

Turning to “PTH 79-84: C-terminal PTH ligand as printed; possibly misprint of 39-84 (TKAKSQ; Parathyroid hormone; UniProt P01270 110-115, looked up, fragment)”, the Axin-LRP6 binding result in the assay with LRP6/Axin binding was “did not”. In addition, the Axin protein levels result with Axin is recorded as “did not affect Axin level”.

With “PTH (1-84): Full-length PTH or PTH ligand, 84 amino acids long, represented as 1-84”, the TCF luciferase activity result in assay [1] was “significantly elevated”. Moreover, the “activation of TCF4-Luc reporter” value in assay [1] (10^−7M PTH (1-84), 12 hours) is listed as “activates the Wnt signaling pathway”. Also, the “β-catenin levels in cytosolic and nuclear fractions” value with β-catenin (5×10^−7 M PTH (1-84), 30 minutes) is “stimulated the levels of β-catenin in both the cytoplasm and the nucleus”. In addition, in the assay with PTH1R/LRP5/6 complex, the “interaction between endogenous LRP5/6 and PTH1R” value was “induced the interaction between endogenous LRP5/6 and PTH1R in a time dependent manner”; the “time of peak of PTH-induced LRP5/6-PTH1R interaction” value was found to be 1 h. In addition, in the assay on LRP6/Axin binding, the Axin-LRP6 binding result is given as “induces LRP6/Axin binding”. Moreover, the Axin-LRP6 binding result in the assay on LRP6/Axin binding (listed as PTH1-84) is recorded as “stimulated Axin-LRP6 binding”. For the same molecule, the Axin protein levels entry with Axin is “further downregulated Axin protein levels”.

Regarding “PTHrP 1-40: PTHrP fragment 1-40 tested beside PTH ligands”, the TCF luciferase activity result in assay [1] is listed as “significantly elevated”. In addition, the Axin-LRP6 binding result in the assay on LRP6/Axin binding is listed as “stimulated Axin-LRP6 binding”. In addition, in the assay on Axin, the Axin protein levels result is recorded as “further downregulated Axin protein levels”.

In the case of “cPTH (39-84): C-terminal fragment of PTH, amino acids 39-84 (APLAPRDAGSQRPRKKEDNVLVESHEKSLGEADKADVNVLTKAKSQ; Parathyroid hormone; UniProt P01270 70-115, looked up, fragment)”, in assay [1], the TCF luciferase activity entry is given as “only a marginal increase”. Further, the “effect on TGF-β-induced transcription activity (SBE-luc)” value in assay [2] was “inhibited TGF-β-induced transcription activity”.
